Assay results: ChEMBL document CHEMBL1909046, “DrugMatrix in vitro pharmacology data”

Assays:
[1] = DRUGMATRIX: Sigma2 radioligand binding (ligand: [3H] Ifenprodil); type: cell membranes, Rattus norvegicus, Wistar, Brain, Membrane; details: Not Active = under 50% inhibition at 10 µM
[2] = biological target: Mitogen-activated protein kinase 1 (Homo sapiens, UniProt P28482); experiment: DRUGMATRIX: Protein Serine/Threonine Kinase, ERK2 enzyme inhibition (substrate: Myelin Basic Protein); set-up: species or system Escherichia coli; details: Not Active = under 50% inhibition at 10 µM
Mitogen-activated protein kinase 1, sequence (P28482 whole entry): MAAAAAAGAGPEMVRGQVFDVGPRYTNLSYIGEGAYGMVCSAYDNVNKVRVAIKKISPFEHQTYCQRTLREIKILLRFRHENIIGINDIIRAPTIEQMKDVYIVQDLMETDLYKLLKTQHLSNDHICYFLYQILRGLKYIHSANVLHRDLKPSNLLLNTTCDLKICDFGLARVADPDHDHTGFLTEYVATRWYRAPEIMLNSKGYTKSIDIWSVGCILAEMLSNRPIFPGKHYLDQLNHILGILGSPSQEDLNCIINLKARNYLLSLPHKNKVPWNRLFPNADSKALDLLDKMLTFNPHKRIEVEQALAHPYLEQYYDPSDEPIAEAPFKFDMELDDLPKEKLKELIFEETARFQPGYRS

[3] = biological target: Mu-type opioid receptor (Homo sapiens, UniProt P35372); experiment: DRUGMATRIX: Opiate mu (OP3, MOP) radioligand binding (ligand: [3H] Diprenorphine); type: cell membranes, CHO-K1, Membrane; details: Not Active = under 50% inhibition at 10 µM
Mu-type opioid receptor, sequence (P35372 whole entry): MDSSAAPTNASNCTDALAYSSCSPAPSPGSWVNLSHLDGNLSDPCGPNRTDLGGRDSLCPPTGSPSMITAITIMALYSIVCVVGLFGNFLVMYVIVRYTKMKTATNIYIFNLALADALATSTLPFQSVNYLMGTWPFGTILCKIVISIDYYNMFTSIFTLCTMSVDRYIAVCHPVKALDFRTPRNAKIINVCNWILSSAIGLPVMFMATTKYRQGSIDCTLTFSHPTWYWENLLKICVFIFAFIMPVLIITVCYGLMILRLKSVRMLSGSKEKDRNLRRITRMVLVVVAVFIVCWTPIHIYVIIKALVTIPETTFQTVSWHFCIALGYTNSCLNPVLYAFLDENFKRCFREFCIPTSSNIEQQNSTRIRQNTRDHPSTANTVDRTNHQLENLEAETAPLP

[4] = biological target: T1, Type-2 angiotensin II receptor (Homo sapiens, UniProt P50052); type: cell-based; details: cho-k1; further: in other assays of this panel Not Active means under 50% inhibition at 10 µM
T1 sequence (P50052 whole entry): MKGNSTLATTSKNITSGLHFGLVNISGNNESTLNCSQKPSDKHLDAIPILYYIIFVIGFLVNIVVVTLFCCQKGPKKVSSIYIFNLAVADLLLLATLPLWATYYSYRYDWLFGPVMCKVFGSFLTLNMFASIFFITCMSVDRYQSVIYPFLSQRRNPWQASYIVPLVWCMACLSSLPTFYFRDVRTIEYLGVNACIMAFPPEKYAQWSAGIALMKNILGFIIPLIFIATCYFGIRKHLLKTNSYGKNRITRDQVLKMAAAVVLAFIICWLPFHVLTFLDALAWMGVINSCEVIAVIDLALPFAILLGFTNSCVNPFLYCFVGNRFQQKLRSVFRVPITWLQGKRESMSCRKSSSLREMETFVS

[5] = biological target: Glycine receptor (Rattus norvegicus, UniProt P22771+P24524+P07727+P20781); type: cell membranes, Wistar, Spinal cord, Membrane; further: in other assays of this panel Not Active means under 50% inhibition at 10 µM
[6] = biological target: Vasopressin V1a receptor (Homo sapiens, UniProt P37288); type: cell membranes, Membrane; details: hek293; further: in other assays of this panel Not Active means under 50% inhibition at 10 µM
Vasopressin V1a receptor, sequence (P37288 whole entry): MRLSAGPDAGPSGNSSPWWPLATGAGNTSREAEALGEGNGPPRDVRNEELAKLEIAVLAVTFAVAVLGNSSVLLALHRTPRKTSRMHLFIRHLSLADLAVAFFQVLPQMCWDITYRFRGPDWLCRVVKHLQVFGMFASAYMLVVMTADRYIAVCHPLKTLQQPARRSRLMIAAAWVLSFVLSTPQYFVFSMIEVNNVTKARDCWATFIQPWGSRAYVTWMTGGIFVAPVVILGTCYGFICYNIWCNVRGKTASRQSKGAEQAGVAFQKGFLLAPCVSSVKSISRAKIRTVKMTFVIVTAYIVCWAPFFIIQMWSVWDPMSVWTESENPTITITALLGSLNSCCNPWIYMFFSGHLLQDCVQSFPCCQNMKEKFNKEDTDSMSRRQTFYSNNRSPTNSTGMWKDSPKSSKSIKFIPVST

[7] = biological target: Aldo-keto reductase family 1 member B1 (Rattus norvegicus, UniProt P07943); experiment: biochemical; type: tissue-based, Lens of camera-type eye;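 further: inhibition of aldose reductase enzyme activity, measured with DL-glyceraldehyde as the substrate; in other assays of this panel Not Active means under 50% inhibition at 10 µM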

SMILES	IC50 [1]	Ki [1]	IC50 [2]	IC50 ([3]; cho-k1)	IC50 [4]	IC50 [5]	IC50 [6]	IC50 [7]	Ki [3] [µM]	IC50 ([3]; read-out: IC50) [µM]	IC50 ([2]; read-out: IC50) [µM]	IC50 ([7]; read-out: IC50) [µM]
Cc1c(N)nc([C@H](CC(N)=O)NC[C@H](N)C(N)=O)nc1C(=O)N[C@H](C(=O)N[C@H](C)[C@@H](O)[C@H](C)C(=O)N[C@H](C(=O)NCCc1nc(-c2nc(C(=O)NCCC[S+](C)C)cs2)cs1)[C@@H](C)O)[C@@H](O[C@@H]1O[C@@H](CO)[C@@H](O)[C@H](O)[C@@H]1O[C@H]1O[C@H](CO)[C@@H](O)[C@H](OC(N)=O)[C@@H]1O)c1c[nH]cn1.[Br-] [BLEOMYCIN A2]	Not Active	Not Active	Not Active	Not Active	Not Active	Not Active	Not Active	Not Active	–	–	–	–
CC(CN1c2ccccc2Sc2ccccc21)N(C)C (stereo not drawn) [PROMETHAZINE]	Not Active	Not Active	Not Active	Not Active	Not Active	Not Active	Not Active	Not Active	–	–	–	–
NC(N)=Nc1nc(CSCCC(N)=NS(N)(=O)=O)cs1 [FAMOTIDINE]	Not Active	Not Active	Not Active	Not Active	Not Active	Not Active	Not Active	Not Active	–	–	–	–
CC(C)(c1ccc(O)cc1)c1ccc(O)cc1 [BISPHENOL A]	Not Active	Not Active	Not Active	Not Active	Not Active	Not Active	Not Active	Not Active	–	–	–	–
c1ccc2sc(SSc3nc4ccccc4s3)nc2c1 [BENZOTHIAZYL DISULFIDE]	Not Active	Not Active	Not Active	–	Not Active	Not Active	Not Active	Not Active	1.26	3.11	–	–
CC(=O)Nc1ccc2c(c1)Cc1ccccc1-2 [2-ACETYLAMINOFLUORENE]	Not Active	Not Active	Not Active	Not Active	Not Active	Not Active	Not Active	Not Active	–	–	–	–
Cc1cc(C(C)(C)C)c(O)c(C)c1CC1=NCCN1 [OXYMETAZOLINE]	Not Active	Not Active	Not Active	Not Active	Not Active	Not Active	Not Active	Not Active	–	–	–	–
c1ccc(Cn2ccnc2)cc1	Not Active	Not Active	Not Active	Not Active	Not Active	Not Active	Not Active	Not Active	–	–	–	–
CC(N)Cc1c[nH]c2ccc(OCc3cccs3)cc12 (stereo not drawn) [BW-723C86]	Not Active	Not Active	Not Active	Not Active	Not Active	Not Active	Not Active	Not Active	–	–	–	–
CCO [ALCOHOL]	Not Active	Not Active	Not Active	Not Active	Not Active	Not Active	Not Active	Not Active	–	–	–	–
CC[C@H]1OC(=O)[C@H](C)[C@@H](O[C@H]2C[C@@](C)(OC)[C@@H](O)[C@H](C)O2)[C@H](C)[C@@H](O[C@@H]2O[C@H](C)C[C@H](N(C)C)[C@H]2O)[C@](C)(O)C[C@@H](C)C(=O)[C@H](C)[C@@H](O)[C@]1(C)O [ERYTHROMYCIN]	Not Active	Not Active	Not Active	Not Active	Not Active	Not Active	Not Active	Not Active	–	–	–	–
Nc1nc(N)c2nc(CNc3ccc(C(=O)N[C@@H](CCC(=O)O)C(=O)O)cc3)cnc2n1 [AMINOPTERIN]	Not Active	Not Active	Not Active	Not Active	Not Active	Not Active	Not Active	Not Active	–	–	–	–
CC(C)Cn1cnc2c(N)nc3ccccc3c21 [IMIQUIMOD]	Not Active	Not Active	Not Active	Not Active	Not Active	Not Active	Not Active	Not Active	–	–	–	–
C[N+](C)(C)CCOP(=O)([O-])OC[C@H](O)CO	Not Active	Not Active	Not Active	Not Active	Not Active	Not Active	Not Active	Not Active	–	–	–	–
OC[C@H]1O[C@@H]2O[C@H]3[C@H](O)[C@@H](O)[C@@H](O[C@H]4[C@H](O)[C@@H](O)[C@@H](O[C@H]5[C@H](O)[C@@H](O)[C@@H](O[C@H]6[C@H](O)[C@@H](O)[C@@H](O[C@H]7[C@H](O)[C@@H](O)[C@@H](O[C@H]8[C@H](O)[C@@H](O)[C@@H](O[C@H]1[C@H](O)[C@H]2O)O[C@@H]8CO)O[C@@H]7CO)O[C@@H]6CO)O[C@@H]5CO)O[C@@H]4CO)O[C@@H]3CO [BETADEX]	Not Active	Not Active	Not Active	Not Active	Not Active	Not Active	Not Active	Not Active	–	–	–	–
O=C(O)COC(=O)Cc1ccccc1Nc1c(Cl)cccc1Cl [ACECLOFENAC]	Not Active	Not Active	–	Not Active	Not Active	Not Active	Not Active	–	–	–	5.93	1.29
COc1ccc(C[C@H](N)C(=O)N[C@H]2[C@@H](O)[C@H](n3cnc4c(N(C)C)ncnc43)O[C@@H]2CO)cc1 [PUROMYCIN]	Not Active	Not Active	Not Active	Not Active	Not Active	Not Active	Not Active	Not Active	–	–	–	–
O=C(O)c1ccccc1 [BENZOIC ACID]	Not Active	Not Active	Not Active	Not Active	Not Active	Not Active	Not Active	Not Active	–	–	–	–
C[C@H]1C[C@H]2[C@@H]3CCC4=CC(=O)C=C[C@]4(C)[C@@]3(F)[C@@H](O)C[C@]2(C)[C@@]1(O)C(=O)CO [BETAMETHASONE]	Not Active	Not Active	Not Active	Not Active	Not Active	Not Active	Not Active	Not Active	–	–	–	–
Oc1ccccc1 [PHENOL]	Not Active	Not Active	Not Active	Not Active	Not Active	Not Active	Not Active	Not Active	–	–	–	–
C[C@H](C(=O)O)c1ccc2oc(-c3ccc(F)cc3)nc2c1 [FLUNOXAPROFEN]	Not Active	Not Active	Not Active	Not Active	Not Active	Not Active	Not Active	Not Active	–	–	–	–
COc1cc(NC(C)CCCN)c2ncccc2c1 (stereo not drawn) [PRIMAQUINE]	Not Active	Not Active	Not Active	Not Active	Not Active	Not Active	Not Active	Not Active	–	–	–	–
COc1cc(/C=C/C(=O)O)ccc1O [FERULATE]	Not Active	Not Active	Not Active	Not Active	Not Active	Not Active	Not Active	Not Active	–	–	–	–
CNC[C@H](O)c1ccc(O)c(O)c1 [EPINEPHRINE]	Not Active	Not Active	Not Active	Not Active	Not Active	Not Active	Not Active	Not Active	–	–	–	–
CCN1CCN(C(=O)N[C@@H](C(=O)N[C@@H]2C(=O)N3[C@@H]2SC(C)(C)[C@@H]3C(=O)O)c2ccccc2)C(=O)C1=O [PIPERACILLIN]	Not Active	Not Active	Not Active	Not Active	Not Active	Not Active	Not Active	Not Active	–	–	–	–
c1ccc2c(c1)Nc1ccccc1S2 [PHENOTHIAZINE]	Not Active	Not Active	Not Active	Not Active	Not Active	Not Active	Not Active	Not Active	–	–	–	–
Cl.NC[C@H]1CC[C@H](C(=O)Oc2ccc(CCC(=O)O)cc2)CC1 [CETRAXATE HYDROCHLORIDE]	Not Active	Not Active	Not Active	Not Active	Not Active	Not Active	Not Active	Not Active	–	–	–	–
CN(CCOc1ccc(C[C@H](Nc2ccccc2C(=O)c2ccccc2)C(=O)O)cc1)c1ccccn1	Not Active	Not Active	Not Active	Not Active	Not Active	Not Active	Not Active	Not Active	–	–	–	–
Nc1nc(F)nc2c1ncn2[C@@H]1O[C@H](CO)[C@@H](O)[C@@H]1O [FLUDARABINE]	Not Active	Not Active	Not Active	Not Active	Not Active	Not Active	Not Active	Not Active	–	–	–	–
